For orientation: melting point means the temperature, or range, at which the solid turns liquid. `CNC(=O)c1cc2cnc(N3CCC[C@H]3CO)nc2n(Cc2ccc(OC)c(Cl)c2)c1=O`: the melting point was 191 to 191.5 °C. The result for `COc1ccc(Cn2c(=O)ccc3cnc(NCc4ncccn4)nc32)cc1Cl` [Example 25] reads 172 to 173 °C; that for `COc1ccc(Cn2c(=O)ccc3cnc(SC)nc32)cc1Cl` [Example 24], 189 to 190 °C.

The compound `O=c1ccc2cnc(N3CCC[C@H]3CO)nc2n1Cc1ccc2c(c1)OCO2` [Example 18] yielded a melting point of 154 to 155 °C. The figure for `COc1ccc(Cn2c(=O)c(C(=O)NCCO)cc3cnc(N4CCC[C@H]4CO)nc32)cc1Cl` is 207 to 210 °C.

In turn, `COc1ccc(Cn2c(=O)ccc3cnc(N4CCc5cncnc5C4)nc32)cc1Cl` [Example 29] had a melting point of 200 to 201 °C. The figure for `COc1ccc(Cn2c(=O)c(C(=O)O)cc3cnc(N4CCC[C@H]4CO)nc32)cc1Cl` [Example 33] is 258 to 264 °C; for `COc1ccc(Cn2c(=O)cc(-c3ccccn3)c3cnc(N4CCC[C@H]4CO)nc32)cc1Cl` [Example 12, (S)-2-(2-Hydroxymethyl-1-pyrrolidinyl)-5-(2-pyridyl)-8-(3-chloro-4-methoxybenzyl)-7,8-dihydro-7-oxo-pyrido[2,3-d]pyrimidine] it is 183.5 to 186.5 °C; for `COc1ccc(Cn2c(=O)ccc3cnc(N4CCC[C@@H]4CO)nc32)cc1Cl` [Example 26] it is 139 to 141 °C. Compound `COC(=O)c1c(-c2nccn2C)c2cnc(N3CCC[C@H]3CO)nc2n(Cc2ccc(OC)c(Cl)c2)c1=O` [Example 13, (S)-2-(2-Hydroxymethyl-1-pyrrolidinyl)-5-(1-methyl-2-imidazolyl)-6-methoxycarbonyl-8-(3-chloro-4-methoxybenzyl)-7,8-dihydro-7-oxo-pyrido[2,3-d]pyrimidine] returned a melting point of 142 to 145 °C. The result for `O=c1ccc2cnc(N3CCC[C@H]3CO)nc2n1Cc1ncccn1` [Example 19] reads 150 to 151 °C; that for `COc1ccc(Cn2c(=O)ccc3cnc(N4CCC[C@H]4CO)nc32)cc1Cl` [Example 1, (S)-2-(2-Hydroxymethyl-1-pyrrolidinyl)-8-(3-chloro-4-methoxybenzyl)-7,8-dihydro-7-oxo-pyrido[2,3-d]pyrimidine], 142 to 143 °C; that for `O=c1ccc2cnc(N3CCC[C@H]3CO)nc2[nH]1` [Example 15], 99 to 103 °C.

Regarding `COC(=O)c1cc2cnc(N3CCCCC3)nc2n(Cc2ccc(OC)c(Cl)c2)c1=O` [Example 22], the melting point was 201 to 203 °C. `COc1ccc(Cn2c(=O)ccc3cnc(N4CCNCC4)nc32)cc1Cl` [Example 28] returned a melting point of 169.5 to 170 °C.

`CN(C)CCn1c(=O)ccc2cnc(N3CCC[C@H]3CO)nc21` [Example 21] showed a melting point of 102 to 104 °C. The compound `COc1ccc(Cn2c(=O)ccc3cnc(N4CCOC(CO)C4)nc32)cc1Cl` (stereo not shown) [Example 27] came in with a melting point of 207 to 209 °C.

`O=c1ccc2cnc(N3CCC[C@H]3CO)nc2n1Cc1ccncc1` [Example 20]: the melting point lay in the range of 143 to 144 °C. The result for `COc1ccc(Cn2c(=O)c(C(=O)NCc3ncccn3)cc3cnc(N4CCC[C@H]4CO)nc32)cc1Cl` reads 216 to 218 °C; that for `COc1ccc(Cn2c(=O)ccc3cnc(N4CCC[C@H]4CO)nc32)cc1OC` [Example 17], 132 °C. The result for `Cn1c(=O)ccc2cnc(N3CCC[C@H]3CO)nc21` [Example 3, (S)-2-(2-Hydroxymethyl-1-pyrrolidinyl)-8-N-mehyl-7,8-dihydro-7-oxo-pyrido[2,3-d]pyrimidine] reads 143 to 144 °C. The result for `COc1ccc(Cn2c(=O)ccc3cnc(N)nc32)cc1Cl` [Example 31] reads 234 to 242 °C; that for `COc1ccc(Cn2c(=O)ccc3ccc(N4CCC[C@H]4CO)nc32)cc1Cl` [Example 10, (S)-2-(2-Hydroxymethyl-1-pyrrolidinyl)-8-(3-chloro-4-methoxybenzyl)-7,8-dihydro-7-oxo-1,8-naphthyridine], 131 to 134 °C. Consider `COC(=O)c1cc2cnc(N3CCC[C@H]3CO)nc2n(Cc2ccccn2)c1=O` [Example 42], for which the melting point fell in the range of 199 to 201 °C. As to `COc1ccc(Cn2c(=O)ccc3cnc(N4CCc5ccccc5C4)nc32)cc1Cl` [Example 23], the melting point lay in the range of 167 to 168 °C. In turn, `COc1ccc(Cn2c(=O)ccc3cnc(N4CCn5ccnc5C4)nc32)cc1Cl` [Example 32] registered a melting point of 158 to 159 °C.

Take `COc1ccc(Cn2c(=O)ccc3cnc(OCc4ccccn4)nc32)cc1Cl` [Example 2, 2-(2-Pyridylmethoxy)-8-(3-chloro-4-methoxybenzyl)-7,8-dihyro-7-oxo-pyrido[2,3-d]pyrimidine]: the melting point fell in the range of 130 to 131 °C. The result for `COc1ccc(Cn2c(=O)ccc3cnc(N4CCC[C@H]4CO)nc32)cc1` [Example 16] reads 135 to 136 °C.

The values are drawn from patent US7078522B2, “Pyridopyrimidine or naphthyridine derivative” (Tanabe Seiyaku Co., Ltd., priority 2001, dated 2006).
